Experiment [1] deals with Muscarinic acetylcholine receptor M4 (human) (UniProt P08173). Kind of experiment: Positive allosteric modulation of human M4 receptor expressed in CHO cells co-expressing Gqi5 assessed as increase in acetylcholine-induced calcium mobilization incubated with EC20 ACh for 140 secs and subsequent EC80 Ach addition further incubated for 120 secs by Fluo-4-AM dye based fluorescence assay. On the technique in general: Calcium assays in cells follow changes in intracellular calcium, usually with a dye or a luminescent sensor.
Muscarinic acetylcholine receptor M4 (human), sequence (P08173 whole entry, looked up): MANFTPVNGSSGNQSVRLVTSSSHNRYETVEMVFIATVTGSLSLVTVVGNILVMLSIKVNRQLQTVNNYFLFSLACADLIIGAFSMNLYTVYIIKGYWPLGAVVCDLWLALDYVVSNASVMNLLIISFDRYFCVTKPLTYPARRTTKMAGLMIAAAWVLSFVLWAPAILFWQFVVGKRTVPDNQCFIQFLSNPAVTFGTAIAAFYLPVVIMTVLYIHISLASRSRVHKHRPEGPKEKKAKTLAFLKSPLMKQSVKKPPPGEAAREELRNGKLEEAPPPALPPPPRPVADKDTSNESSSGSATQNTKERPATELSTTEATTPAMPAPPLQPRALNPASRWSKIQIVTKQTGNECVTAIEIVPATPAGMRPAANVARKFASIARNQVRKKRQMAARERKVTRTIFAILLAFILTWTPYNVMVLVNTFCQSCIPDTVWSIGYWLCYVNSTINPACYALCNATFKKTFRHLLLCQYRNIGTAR

The target in experiment [2] is Muscarinic acetylcholine receptor M4 (rat). Briefly: Positive allosteric modulation of rat M4 receptor expressed in CHO cells co-expressing Gqi5 assessed as increase in acetylcholine-induced calcium mobilization incubated with EC20 ACh for 140 secs and subsequent EC80 Ach addition further incubated for 120 secs by Fluo-4-AM dye based fluorescence assay.

pEC50: −log10 of the molar value.

With `Cc1nnc2ccc(C(=O)NC3CN(c4cccc(C(F)(F)F)n4)C3)cc2c1C`, the pEC50 in experiment [1] is 5.47.
Same read-out and setting: in the case of `Cc1nnc2ccc(C(=O)NC3CN(c4ncc(C(F)(F)F)cc4Cl)C3)cc2c1C` it was 5.58.
The same measure, in the same setting: as for `Cc1nnc2ccc(C(=O)NC3CN(c4cccc(Cl)n4)C3)cc2c1C`, the figure is 5.88; as for `Cc1nnc2ccc(C(=O)NC3CN(c4ccc(C#N)cn4)C3)cc2c1C`, 5.99.
`Cc1nnc2ccc(C(=O)NC3CN(c4ncc(C#N)cc4Cl)C3)cc2c1C`: the pEC50 is 6.86 in experiment [2] and 6.52 in experiment [1].
For `COc1cc(N2CC(NC(=O)c3ccc4nnc(C)c(C)c4c3)C2)c(Cl)cn1` the same measures were 6.45 and 6.43.
For `Cc1nnc2ccc(C(=O)NC3CN(c4ncc(OC(C)C)cn4)C3)cc2c1C`, in experiment [1], the negative-log EC50 (pEC50) was 5.49.
`Cc1nnc2ccc(C(=O)NC3CN(c4cc(Cl)ncc4Cl)C3)cc2c1C`: the pEC50 is 6.64 in experiment [2] and 6.94 in experiment [1].
For the compound `Cc1nnc2ccc(C(=O)NC3CN(c4ncccc4F)C3)cc2c1C`, the pEC50 in experiment [1] is 5.92.
Regarding `Cc1nnc2ccc(C(=O)NC3CN(c4ncc(C(F)(F)F)cn4)C3)cc2c1C`, the pEC50 in experiment [1] was under 5.00.
With `Cc1nnc2ccc(C(=O)NC3CN(c4ncc(Cl)cc4F)C3)cc2c1C`, the negative-log EC50 (pEC50) in experiment [2] is 7.09; in experiment [1] it was 6.19.
Consider `Cc1nnc2ccc(C(=O)NC3CN(c4cnc(C5CC5)cn4)C3)cc2c1C`, for which the pEC50 in experiment [1] is 5.60.
On the same count and under the same terms, in the case of `Cc1nnc2ccc(C(=O)NC3CN(c4ccc(OC(F)F)nc4)C3)cc2c1C` it was 5.84; in that of `Cc1nnc2ccc(C(=O)NC3CN(c4ncc(C5CC5)cc4Cl)C3)cc2c1C`, 5.86.
Still for that read-out and setting: as for `Cc1nnc2ccc(C(=O)NC3CN(c4cccc(F)n4)C3)cc2c1C`, the figure is 6.18; as for `Cc1nnc2ccc(C(=O)NC3CN(c4ccc(F)c(F)c4)C3)cc2c1C`, 6.13.
In the case of `Cc1nnc2ccc(C(=O)NC3CN(c4ncc(F)cc4Cl)C3)cc2c1C`, the values for the pEC50 in experiment [2] and in experiment [1] were 6.76 and 6.33, respectively.
For `Cc1nnc2ccc(C(=O)NC3CN(c4ccc(Cl)cn4)C3)cc2c1C`, the negative logarithm of the EC50 (pEC50) in experiment [1] is 5.90.
On the same count and under the same terms, in the case of `Cc1nnc2ccc(C(=O)NC3CN(c4ncccc4Cl)C3)cc2c1C` it was 6.02.

By pEC50 is commonly meant −log10 of the EC50, conventionally taken in molar units.

Source of the values: BindingDB's records for doi:10.1016/j.bmcl.2019.126678 (Vanderbilt University, 2019).
